Data from patent publication US4049802A (Research Corporation, priority 1975, dated 1977).
≈ marks a conversion by molar mass, not a printed value. Like-named read-outs stand apart in the source and are kept apart here.

Columns and labels:
[1] = system: Pseudomonas; assay: Minimum inhibitory concentrations vs Pseudomonas, Table V; type: cell-based
[2] = Minimum inhibitory concentration (growth at drug concentrations) and effect of para-aminobenzoic acid (PABA), Table II; type: cell-based

| SMILES | Minimum Inhibitory Concentration vs Pseudomonas ([1]; listed as Na Sulfadiazine) [μM/L] | PAB to Block ([1]; listed as Na Sulfadiazine) | Growth (minimum inhibitory concentration series) ([2]; 0.1 μ mole/ml drug) | Growth (minimum inhibitory concentration series) ([2]; 0.4 μ mole/ml drug) | Growth (minimum inhibitory concentration series) ([2]; 0.5 μ mole/ml drug) | Growth, drug + PABA ([2]; 0.5 μ mole/ml drug + PABA 0.05) | Growth (minimum inhibitory concentration series) ([2]; 0.6 μ mole/ml drug) | Growth (minimum inhibitory concentration series) ([2]; 0.8 μ mole/ml drug) | Growth (minimum inhibitory concentration series) ([2]; 1.0 μ mole/ml drug) | Growth, drug + PABA ([2]; 1.0 μ mole/ml drug + PABA 0.1) | Growth (minimum inhibitory concentration series) ([2]; 2.0 μ mole/ml drug) | Growth, drug + PABA ([2]; 2.0 μ mole/ml drug + PABA 0.01) | Growth, drug + PABA ([2]; 2.0 μ mole/ml drug + PABA 0.1) | Growth, drug + PABA ([2]; 2.0 μ mole/ml drug + PABA 0.2) | PAB to Block [1] | MIC ([1]; Pseudomonas, read-out: Minimum Inhibitory Concentration vs Pseudomonas) [µM] | Growth (minimum inhibitory concentration series) ([2]; 0.05 μ mole/ml drug) |
| --- | --- | --- | --- | --- | --- | --- | --- | --- | --- | --- | --- | --- | --- | --- | --- | --- | --- |
| Nc1ccc(S(=O)(=O)Nc2ncccn2)cc1 [Sodium Sulfadiazine, sodium sulfadiazine] | 80 | 1/200 | + | + | + | + | + | - | - | + | - | + | + | + |  |  |  |
| NCc1ccc(S(N)(=O)=O)cc1 [Sulfamylon] |  |  |  |  |  |  |  |  |  |  |  |  |  |  | neg. | 500 (≈ 93.1 µg/mL) |  |
| CC(=O)[O-].CC(=O)[O-].[Zn+2] [Zinc Acetate, zinc acetate] |  |  | + |  | + |  |  |  | + |  |  |  |  |  |  |  | + |
